Measured values as given in paper PMC6268972, “Antiproliferative, Antimicrobial and Apoptosis Inducing Effects of Compounds Isolated from Inula viscosa” (Molecules, 2012).
Converted amounts (≈) assume the structure as drawn. Read-outs that look alike come from different tables or passages of the source.

How the values were obtained:
MCF-7 cells = assay: MTT antiproliferative activity assay, MCF-7; type: cell-based, human; conditions: for IC50: Homo sapiens, read-out: IC50 MCF-7
Protocol: (§1) Hep-2 (larynx carcinoma, ATCC: CCL-23), MCF-7 (breast epithelial adenocarcinoma, ATCC: HTB-22), and Vero (African green monkey kidney, ATCC: CCL-81) cell lines were kindly provided by Dr. Mona Hassuneh (Department of Biological Sciences, University of Jordan). Cells were grown in Minimum Essential Medium Eagle (Gibco, Paisley UK) supplemented with 10% heat inactivated fetal bovine serum (Gibco, Paisley UK), 29 μg/mL L-glutamine, and 40 μg/mL gentamicin. Cells were incubated in a humidified atmosphere of 5% CO2 at 37 °C.
(§2) The antiproliferative activity of Inula viscosa compounds was measured using the MTT (3-(4,5-dimethylthiazol-2-yl)-2,5-diphenyltetrazolium bromide) assay (Promega, Madison, WI, USA). The assay detects the reduction of MTT by mitochondrial dehydrogenase to blue formazan product, which reflects the normal function of mitochondria and cell viability. Exponentially growing cells were washed and seeded at 17,000 cells/well for Hep-2 cell line and 11,000 cells/ well for MCF-7 cell line (in 200 μL of growth medium) in 96 well microplates (Nunc, Roskilde, Denmark). After 24 h incubation, a partial monolayer was formed then the media was removed and 200 μL of the medium containing the compound (initially dissolved in DMSO) were added and re-incubated for 48 h. Then 100 μL of the medium were aspirated and 15 μL of the MTT solution were added to the remaining medium (100 μL) in each well. After 4 h contact with the MTT solution, blue crystals were formed. One hundred μL of the stop solution were added and incubated further for 1 h.
(§3) Reduced MTT was assayed at 550 nm using a microplate reader (Biotek, Winooski, VT, USA). Control groups received the same amount of DMSO (0.1%).Untreated cells were used as a negative control while, cells treated with vincristine sulfate were used as a positive control. Eight concentrations (150, 100, 50, 20, 10, 5, 2, and 1 μg/mL) were prepared from each compound and tested against the three cell lines. IC50 values were calculated as the concentrations that show 50% inhibition of proliferation on any tested cell line. Stock solutions of the compounds were dissolved in (DMSO) then diluted with the medium and sterilized using 0.2 μm membrane filters. The toxicity of DMSO was determined and the final dilution of compounds used for treating the cells contained not more than 0.1% (non toxic concentration) DMSO. IC50 values were reported as the average of three replicates. The antiproliferative effect of the tested compounds was determined by comparing the optical density of the treated cells against the optical density of the control (cells treated with media containing 0.1% DMSO).

Hep-2 cells = assay: MTT antiproliferative activity assay, Hep-2; type: cell-based; conditions: for IC50: Homo sapiens, read-out: IC50 Hep-2
Protocol: as §1, §2, §3

Vero cells = assay: MTT antiproliferative activity assay, Vero; type: cell-based, African green monkey; conditions: for IC50: Chlorocebus sabaeus, Vero, read-out: IC50 Vero
Protocol: as §1, §2, §3

[1] = system: Methicillin resistant Staphylococcus aureus (MRSA); assay: Microtiter plate dilution MIC, MRSA; type: cell-based; conditions: 24 h; for MIC: Staphylococcus aureus, MRSA, read-out: Minimum inhibitory concentration (MIC) MRSA
Protocol: (§4) The microbial strains used in this study were Escherichia coli (ATCC 10798), Salmonella typhimurium (ATCC14028), Methicillin resistant Staphylococcus aureus (MRSA, Clinical isolate), Bacillus cereus (Toxigenic strain TS), and Candida albicans (ATCC 90028). Bacterial strains were stocked onto nutrient agar slant at 4 °C, and Candida albicans was stocked onto malt agar slant at 4 °C.
(§5) The microtiter plate dilution method was used to determine the MIC (minimum inhibitory concentration) of compounds under study. Sterile 96-well microplates (Nunc) were used for the assay. Stock compounds were dissolved in DMSO so that the final concentrations in micro wells were less than 1% DMSO and solvent controls were run at these concentrations. Positive controls of penicillin G and tetracycline (Oxoid, Hampshire, UK) were prepared at the following concentrations 2, 4, 8, 16, 31, 62.5, 125, and 250 μg/mL. 1% DMSO was used as a solvent control. Compounds were diluted to twice the desired initial test concentration (250 µg/mL) with Muller Hinton broth (MHB) (Oxoid). All wells, except the first were filled with MHB (50 μL). Compounds (100 μL) were added to the first well and serial two-fold dilutions were made down to the desired minimum concentration (2 μg/mL). An over-night culture of bacteria suspended in MHB was adjusted to turbidity equal to 0.5 McFarland standard. The plates were inoculated with bacterial suspension (50 μL/well) and incubated at 37 °C for 24 h. Then the turbidity was measured using micro-plate reader (Biotek) at 620 nm wavelength. The same procedure was used to determine the antifungal activity of compounds against Candida albicans. The medium used was malt extract broth. The yeast cells were suspended in 0.85% saline, with an optical density equivalent to 0.5 McFarland standard, and diluted 1:100 in malt extract broth to obtain the working concentration. After 24 h incubation with each compound, the turbidity was measured at 530 nm wavelength using a spectrophotometer (Biotek). Percentage inhibition for tested microorganisms was calculated using the following formula:
(§6) MIC was determined as the lowest concentration of the compound that causes complete inhibition (100%) of each microorganism.

Escherichia coli = assay: Microtiter plate dilution MIC, E. coli; type: cell-based; conditions: for MIC: Escherichia coli, read-out: Minimum inhibitory concentration (MIC) E.c
Protocol: as §4, §5, §6

Salmonella typhimurium = assay: Microtiter plate dilution MIC, S. typhimurium; type: cell-based; conditions: for MIC: Salmonella enterica, ATCC 14028 / TYPHIMURIUM, read-out: Minimum inhibitory concentration (MIC) S.t
Protocol: as §4, §5, §6

Bacillus cereus = assay: Microtiter plate dilution MIC, B. cereus; type: cell-based; conditions: 24 h; for MIC: Bacillus cereus, read-out: Minimum inhibitory concentration (MIC) B.c
Protocol: as §4, §5, §6

Candida albicans = assay: Microtiter plate dilution MIC, C. albicans; type: cell-based; conditions: for MIC: Candida albicans, read-out: Minimum inhibitory concentration (MIC) C.a
Protocol: as §4, §5, §6

[2] = MTT, 48 h treatment, average of three replicates
[3] = clinical isolate, 100% inhibition
[4] = ATCC 10798, 24 h, 100% inhibition
[5] = ATCC14028, 24 h, 100% inhibition
[6] = Toxigenic strain TS, 100% inhibition
[7] = ATCC 90028, malt extract broth, 24 h, 100% inhibition
[8] = ATCC10798, ATCC 10798, 24 h, 100% inhibition

Compound	IC50 MCF-7 (MCF-7 cells; [2])	IC50 Hep-2 (Hep-2 cells; [2])	IC50 Vero (Vero cells; [2])	Minimum inhibitory concentration (MIC) MRSA [1, 3]	Minimum inhibitory concentration (MIC) E.c (Escherichia coli; [4])	Minimum inhibitory concentration (MIC) S.t (Salmonella typhimurium; [5])	Minimum inhibitory concentration (MIC) B.c (Bacillus cereus; [6])	Minimum inhibitory concentration (MIC) C.a (Candida albicans; [7])	also measured
CC[C@H](CC[C@@H](C)[C@H]1CC[C@H]2[C@@H]3CC=C4C[C@@H](O[C@@H]5O[C@H](CO)[C@@H](O)[C@H](O)[C@H]5O)CC[C@]4(C)[C@H]3CC[C@]12C)C(C)C [β-Sitosteryl glucoside]	>150 µg/mL	>150 µg/mL	>150 µg/mL	>250 µg/mL	>250 µg/mL	>250 µg/mL	>250 µg/mL	>250 µg/mL	
C=C1C(=O)O[C@H]2CC(=C)[C@H]3CC[C@@](C)(O)[C@@H]3C[C@H]12 [Inuviscolide]									IC50 (MCF-7 cells; MCF7, MTT, 48 h treatment, average of three replicates): > 150 µg/mL; IC50 (Hep-2 cells; HEp-2, MTT, 48 h treatment, average of three replicates): 148.8 ± 1.25 µg/mL (≈ 599 µM); IC50 (Vero cells; [2]): > 150 µg/mL; MIC [1, 3]: > 250 µg/mL; MIC (Escherichia coli; [8]): > 250 µg/mL; MIC (Salmonella typhimurium; [5]): > 250 µg/mL; MIC (Bacillus cereus; [6]): > 250 µg/mL; MIC (Candida albicans; ATCC90028, ATCC 90028, malt extract broth, 24 h, 100% inhibition): > 250 µg/mL
C[C@@H]1[C@H](O)[C@@H](C)/C=C/C=C/CC/C=C/C=C/C=C/C=C/C(O[C@H]2O[C@H](C)[C@@H](O)[C@H](N)[C@@H]2O)CC2O[C@](O)(CC(O)C(O)CCC(O)CC(O)CC(O)CC(=O)O[C@H]1C)CC(O)C2C(=O)O (stereo partly drawn) [Nystatin, reference compound]								25 µg/mL (≈ 27 µM)	
CN(C)[C@@H]1C(O)=C(C(N)=O)C(=O)[C@@]2(O)C(O)=C3C(=O)c4c(O)cccc4[C@@](C)(O)[C@H]3C[C@@H]12 [Tetracycline, reference compound]									MIC [1, 3]: 125 µg/mL (≈ 281 µM); MIC (Escherichia coli; [8]): 150 µg/mL (≈ 338 µM); MIC (Salmonella typhimurium; [5]): 4 µg/mL (≈ 9 µM); MIC (Bacillus cereus; [6]): 2 µg/mL (≈ 4.5 µM)
C=C(C(=O)O)[C@@H]1CC[C@@]2(C)C[C@@H](O)C[C@@](C)(O)[C@@H]2C1 [2α-Hydroxyilicic acid]	>150 µg/mL	>150 µg/mL	>150 µg/mL	>250 µg/mL	>250 µg/mL	>250 µg/mL	>250 µg/mL	>250 µg/mL	
COc1c(O)cc2oc(-c3ccc(O)cc3)cc(=O)c2c1O [Hispidulin]									IC50 (MCF-7 cells; MCF7, 48 h): 10.3 ± 1.85 µg/mL (≈ 34.5 µM); IC50 (Hep-2 cells; HEp-2, 48 h): 19.5 ± 1.06 µg/mL (≈ 64.9 µM); IC50 (Vero cells; 48 h): 105 ± 2.35 µg/mL (≈ 351 µM); MIC [1]: > 250 µg/mL; MIC (Escherichia coli; ATCC10798, 24 h): > 250 µg/mL; MIC (Salmonella typhimurium; 24 h): > 250 µg/mL; MIC (Bacillus cereus): > 250 µg/mL; MIC (Candida albicans; ATCC90028, 24 h): > 250 µg/mL
COc1c(O)cc2oc(-c3ccc(O)c(O)c3)cc(=O)c2c1O [Nepetin]	5.87 ± 1.36 µg/mL (≈ 18.6 µM)	11.33 ± 0.98 µg/mL (≈ 35.8 µM)	103.54 ± 2.82 µg/mL (≈ 327 µM)	250 µg/mL (≈ 790 µM)	>250 µg/mL	>250 µg/mL	>250 µg/mL	>250 µg/mL	
